PMC5682201 (European journal of medicinal chemistry, 2017)

Experiments:
Type in all cases: cell-based
L. major Amastigotes = assay: Leishmania major amastigote assay; details: read-out: L. major Amastigotes EC50; Table 4; r^2 values >0.75
HepG2 = HepG2 toxicity; details: Table 4
NIH 3T3 = NIH 3T3 toxicity; details: Table 4

6-(3-morpholinophenyl)-N-(1,2,4-triazin-3-yl)quinazolin-4-amine [9d]
EC50 (L. major Amastigotes): > 15 µM | HepG2 TC50 (HepG2): >20 µM | NIH 3T3 TC50 (NIH 3T3): >50 µM
